Reference: patent publication US10870652B2, “Compounds and methods for modulating bruton's tyrosine kinase” (CORVUS PHARMACEUTICALS, INC., priority 2016, dated 2020)

How the values were obtained:
Format in all cases: biochemical
[1] = molecular target: T1, ITK (Homo sapiens, UniProt Q08881); test: ITK IC50 kinase inhibition assay
T1 sequence (Q08881 1-620): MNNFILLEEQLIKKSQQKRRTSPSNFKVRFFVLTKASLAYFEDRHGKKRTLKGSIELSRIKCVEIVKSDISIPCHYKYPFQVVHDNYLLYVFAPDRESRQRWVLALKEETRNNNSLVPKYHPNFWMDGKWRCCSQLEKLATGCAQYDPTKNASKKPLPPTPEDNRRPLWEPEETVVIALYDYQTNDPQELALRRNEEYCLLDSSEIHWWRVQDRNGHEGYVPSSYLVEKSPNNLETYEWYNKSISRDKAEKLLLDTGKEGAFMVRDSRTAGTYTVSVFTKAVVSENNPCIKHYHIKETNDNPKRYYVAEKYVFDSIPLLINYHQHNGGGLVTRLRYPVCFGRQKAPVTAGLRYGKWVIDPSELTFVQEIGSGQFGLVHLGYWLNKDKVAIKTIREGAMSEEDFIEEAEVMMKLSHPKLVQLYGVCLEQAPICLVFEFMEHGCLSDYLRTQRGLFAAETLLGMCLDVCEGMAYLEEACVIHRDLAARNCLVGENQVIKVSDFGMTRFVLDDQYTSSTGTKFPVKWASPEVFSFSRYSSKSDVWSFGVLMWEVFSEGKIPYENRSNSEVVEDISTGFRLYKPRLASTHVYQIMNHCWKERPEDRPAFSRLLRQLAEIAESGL

[2] = molecular target: BTK (Homo sapiens, UniProt Q06187); test: BTK IC50 kinase inhibition assay
BTK, sequence (Q06187 whole entry): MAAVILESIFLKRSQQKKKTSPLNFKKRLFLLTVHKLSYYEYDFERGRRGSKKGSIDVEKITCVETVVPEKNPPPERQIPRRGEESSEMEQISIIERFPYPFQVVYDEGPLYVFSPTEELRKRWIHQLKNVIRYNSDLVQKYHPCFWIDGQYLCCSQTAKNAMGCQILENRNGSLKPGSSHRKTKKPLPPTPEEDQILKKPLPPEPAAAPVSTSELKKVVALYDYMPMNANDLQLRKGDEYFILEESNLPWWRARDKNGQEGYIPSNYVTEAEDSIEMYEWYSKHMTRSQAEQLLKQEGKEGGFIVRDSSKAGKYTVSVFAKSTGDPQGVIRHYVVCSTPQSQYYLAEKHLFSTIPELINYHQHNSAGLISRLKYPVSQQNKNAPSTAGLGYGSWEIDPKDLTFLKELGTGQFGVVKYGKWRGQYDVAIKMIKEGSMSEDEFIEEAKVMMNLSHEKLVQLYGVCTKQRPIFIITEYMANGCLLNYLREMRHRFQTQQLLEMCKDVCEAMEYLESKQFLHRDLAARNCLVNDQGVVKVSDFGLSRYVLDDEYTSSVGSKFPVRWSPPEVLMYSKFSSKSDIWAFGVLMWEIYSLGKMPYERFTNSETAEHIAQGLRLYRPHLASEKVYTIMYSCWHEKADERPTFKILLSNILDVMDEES

[3] = molecular target: T2, JAK3 (Homo sapiens, UniProt P52333); test: JAK3 IC50 kinase inhibition assay
T2 sequence (P52333 1-1124): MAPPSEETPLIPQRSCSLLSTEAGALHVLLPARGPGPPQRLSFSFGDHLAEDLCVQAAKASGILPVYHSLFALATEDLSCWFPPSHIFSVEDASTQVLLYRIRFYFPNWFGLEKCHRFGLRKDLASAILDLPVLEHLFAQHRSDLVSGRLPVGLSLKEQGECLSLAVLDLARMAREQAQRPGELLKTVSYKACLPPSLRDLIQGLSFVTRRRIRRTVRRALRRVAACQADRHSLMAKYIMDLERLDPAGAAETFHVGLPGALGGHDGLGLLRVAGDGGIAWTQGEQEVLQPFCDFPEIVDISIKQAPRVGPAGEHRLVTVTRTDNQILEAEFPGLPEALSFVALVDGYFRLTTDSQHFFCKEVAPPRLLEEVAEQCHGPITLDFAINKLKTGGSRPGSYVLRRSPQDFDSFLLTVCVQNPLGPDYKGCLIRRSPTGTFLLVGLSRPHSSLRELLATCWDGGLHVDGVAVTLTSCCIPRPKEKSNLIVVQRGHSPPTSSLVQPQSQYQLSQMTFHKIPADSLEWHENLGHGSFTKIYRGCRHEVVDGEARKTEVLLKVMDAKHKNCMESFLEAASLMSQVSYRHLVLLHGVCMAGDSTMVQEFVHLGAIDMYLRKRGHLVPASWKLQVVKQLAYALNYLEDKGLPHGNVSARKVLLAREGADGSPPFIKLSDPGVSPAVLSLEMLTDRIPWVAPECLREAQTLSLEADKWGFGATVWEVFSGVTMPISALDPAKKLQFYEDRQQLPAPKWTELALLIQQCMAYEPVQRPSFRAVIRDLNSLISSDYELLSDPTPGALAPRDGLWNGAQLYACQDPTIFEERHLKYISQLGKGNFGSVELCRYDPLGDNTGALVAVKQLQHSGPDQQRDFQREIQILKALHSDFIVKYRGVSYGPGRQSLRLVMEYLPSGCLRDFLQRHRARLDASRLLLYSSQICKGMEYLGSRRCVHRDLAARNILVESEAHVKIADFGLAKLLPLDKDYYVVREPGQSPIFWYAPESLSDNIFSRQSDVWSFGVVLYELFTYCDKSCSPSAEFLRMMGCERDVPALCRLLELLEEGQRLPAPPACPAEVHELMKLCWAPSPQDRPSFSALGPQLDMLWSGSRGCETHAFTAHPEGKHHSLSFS

[4] = molecular target: T3, TXK (Homo sapiens, UniProt P42681); test: TXK IC50 kinase inhibition assay
T3 sequence (P42681 1-527): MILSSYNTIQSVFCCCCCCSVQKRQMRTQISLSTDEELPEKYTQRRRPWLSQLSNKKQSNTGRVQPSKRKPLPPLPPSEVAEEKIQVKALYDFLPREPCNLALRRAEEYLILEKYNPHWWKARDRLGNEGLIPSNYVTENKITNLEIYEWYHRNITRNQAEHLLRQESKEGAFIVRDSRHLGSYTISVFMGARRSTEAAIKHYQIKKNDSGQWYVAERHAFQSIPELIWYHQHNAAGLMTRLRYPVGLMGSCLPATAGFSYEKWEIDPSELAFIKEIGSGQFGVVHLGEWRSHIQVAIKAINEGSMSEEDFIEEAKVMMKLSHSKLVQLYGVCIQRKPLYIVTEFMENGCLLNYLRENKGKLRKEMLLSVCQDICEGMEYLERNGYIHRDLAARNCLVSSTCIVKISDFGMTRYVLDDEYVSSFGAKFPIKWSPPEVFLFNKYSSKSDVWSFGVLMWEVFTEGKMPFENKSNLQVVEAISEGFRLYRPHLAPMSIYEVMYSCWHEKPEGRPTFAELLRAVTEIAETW

Structure (SMILES) | IC50 [1] [nM] | IC50 [2] [nM] | IC50 [3] [nM] | IC50 [4] [nM]
C=CC(=O)N1CCC[C@H]1Cn1nc(-c2ccc(Oc3ccccc3)cc2)c2cncc(F)c21 [Compound A27, (S)-1-(2-((7-fluoro-3-(4-phenoxyphenyl)-1H-pyrazolo[4,3-c]pyridin-1-yl)methyl)pyrrolidin-1-yl)prop-2-en-1-one] | > 500 | < 100 | > 500 | < 100
C=CC(=O)N1CCC[C@@H](c2nc(-c3ccc(Oc4ccccc4)cc3)c3cnccn23)C1 [Compound A28, (R)-1-(3-(1-(4-phenoxyphenyl)imidazo[1,5-a]pyrazin-3-yl)piperidin-1-yl)prop-2-en-1-one] | > 500 | < 100 | > 500 | < 100
C=CC(=O)N1CCC[C@H]1c1nc(-c2ccc(Oc3ccccc3)cc2)c2cnccn12 [Compound A29, (S)-1-(2-(1-(4-phenoxyphenyl)imidazo[1,5-a]pyrazin-3-yl)pyrrolidin-1-yl)prop-2-en-1-one] | > 500 | < 100 | > 500 | 100 to 500
C=CC(=O)N1CC[C@@H](c2nc(-c3ccc(Oc4ccccc4)cc3)c3cnccn23)C1 [Compound A30, (R)-1-(3-(1-(4-phenoxyphenyl)imidazo[1,5-a]pyrazin-3-yl)pyrrolidin-1-yl)prop-2-en-1-one] | > 500 | < 100 | > 500 | < 100
CC#CC(=O)N1CCC[C@H]1c1nc(-c2ccc(Oc3ccccc3)cc2)c2cnccn12 [Compound A31, (S)-1-(2-(1-(4-phenoxyphenyl)imidazo[1,5-a]pyrazin-3-yl)pyrrolidin-1-yl)but-2-yn-1-one] | > 500 | > 500 | > 500 | > 500
CC#CC(=O)N1CC[C@@H](c2nc(-c3ccc(Oc4ccccc4)cc3)c3cnccn23)C1 [Compound A32, (R)-1-(3-(1-(4-phenoxyphenyl)imidazo[1,5-a]pyrazin-3-yl)pyrrolidin-1-yl)but-2-yn-1-one] | > 500 | < 100 | > 500 | 100 to 500
C=CC(=O)N1CCC[C@@H](n2nc(-c3ccc(Oc4ccccc4)cc3C#N)c3cncnc32)C1 [Compound A33, (R)-2-(1-(1-acryloylpiperidin-3-yl)-H-pyrazolo[3,4-d]pyrimidin-3-yl)-5-phenoxybenzonitrile] | > 500 | 100 to 500 | > 500 | > 500
C=CC(=O)N1CCC(Cn2nc(-c3ccc(Oc4ccccc4)cc3)c3cncnc32)CC1 [Compound A34, 1-(4-((3-(4-phenoxyphenyl)-1H-pyrazolo[3,4-d]pyrimidin-1-yl)methyl)piperidin-1-yl)prop-2-en-1-one] | > 500 | < 100 | > 500 | > 500
C=CC(=O)N1CC(Cn2nc(-c3ccc(Oc4ccccc4)cc3)c3cncnc32)C1 [Compound A35, 1-(3-((3-(4-phenoxyphenyl)-1H-pyrazolo[3,4-d]pyrimidin-1-yl)methyl)azetidin-1-yl)prop-2-en-1-one] | > 500 | < 100 | > 500 | 100 to 500
C=CC(=O)N1CCC(n2nc(-c3ccc(Oc4ccccc4)cc3)c3cncnc32)CC1 [Compound A36, 1-(4-(3-(4-phenoxyphenyl)-1H-pyrazolo[3,4-d]pyrimidin-1-yl)piperidin-1-yl)prop-2-en-1-one] | > 500 | 100 to 500 | > 500 | 100 to 500
C=CC(=O)N1CC2(CC(n3nc(-c4ccc(Oc5ccccc5)cc4)c4cncnc43)C2)C1 [Compound A37, 1-(6-(3-(4-phenoxyphenyl)-1H-pyrazolo[3,4-d]pyrimidin-1-yl)-2-azaspiro[3.3]heptan-2-yl)prop-2-en-1-one] | > 500 | < 100 | > 500 | 100 to 500
C=CC(=O)Nc1ccccc1Cn1nc(-c2ccc(Oc3ccccc3)cc2)c2cncnc21 [Compound A38, N-(2-((3-(4-phenoxyphenyl)-1H-pyrazolo[3,4-d]pyrimidin-1-yl)methyl)phenyl)acrylamide] | > 500 | < 100 | > 500 | < 100
C=CC(=O)N1CCC[C@@H](n2nc(-c3ccc(Oc4cccc(F)c4)cc3)c3cncnc32)C1 [Compound A39, (R)-1-(3-(3-(4-(3-fluorophenoxy)phenyl)-1H-pyrazolo[3,4-d]pyrimidin-1-yl)piperidin-1-yl)prop-2-en-1-one] | > 500 | < 100 | > 500 | < 100

Second part, the compound after the results:

IC50 [1] [nM] | IC50 [2] [nM] | IC50 [3] [nM] | IC50 [4] [nM] | Structure (SMILES)
> 500 | > 500 | > 500 | > 500 | C=C(C)C(=O)N1CCC[C@@H](n2nc(-c3ccc(Oc4ccccc4)cc3)c3cncnc32)C1 [Compound A21, (R)-2-methyl-1-(3-(3-(4-phenoxyphenyl)-1H-pyrazolo[3,4-d]pyrimidin-1-yl)piperidin-1-yl)prop-2-en-1-one]
> 500 | < 100 | > 500 | < 100 | C=CC(=O)N1CCC[C@H]1Cn1nc(-c2ccc(Oc3ccccc3)cc2)c2cnccc21 [Compound A22, (S)-1-(2-((3-(4-phenoxyphenyl)-1H-pyrazolo[4,3-c]pyridin-1-yl)methyl)pyrrolidin-1-yl)prop-2-en-1-one]
> 500 | < 100 | > 500 | < 100 | C=CC(=O)N1CCC[C@@H](n2nc(-c3ccc(Oc4ccccc4)cc3)c3cnccc32)C1 [Compound A23, (R)-1-(3-(3-(4-phenoxyphenyl)-H-pyrazolo[4,3-c]pyridin-1-yl)piperidin-1-yl)prop-2-en-1-one]
> 500 | < 100 | > 500 | < 100 | C=CC(=O)N1CCC[C@@H](n2nc(-c3ccc(Oc4ccccc4)cc3F)c3cnccc32)C1 [Compound A24, (R)-1-(3-(3-(2-fluoro-4-phenoxyphenyl)-1H-pyrazolo[4,3-c]pyridin-1-yl)piperidin-1-yl)prop-2-en-1-one]
> 500 | < 100 | > 500 | > 500 | CN(C)C/C=C/C(=O)N1CC[C@@H](n2nc(-c3ccc(Oc4ccccc4)cc3)c3cncnc32)C1 [Compound A25]
> 500 | < 100 | > 500 | < 100 | C=CC(=O)N1CCC[C@@H](n2nc(-c3ccc(Oc4ccccc4)cc3)c3cncc(F)c32)C1 [Compound A26, (R)-1-(3-(7-fluoro-3-(4-phenoxyphenyl)-1H-pyrazolo[4,3-c]pyridin-1-yl)piperidin-1-yl)prop-2-en-1-one]
